Legend:
Assay in all cases: DSF 100 kinase selectivity screen;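 also: compound tested at 20 µM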
Type in all cases: binding
[1] = target: T1, ~100 representative kinases (Homo sapiens, UniProt P22830); conditions: protein FECH; average of three replicates
T1 construct: Recombinant protein kinase domains with a concentration of 2 μM
T1 sequence (P22830 55-423): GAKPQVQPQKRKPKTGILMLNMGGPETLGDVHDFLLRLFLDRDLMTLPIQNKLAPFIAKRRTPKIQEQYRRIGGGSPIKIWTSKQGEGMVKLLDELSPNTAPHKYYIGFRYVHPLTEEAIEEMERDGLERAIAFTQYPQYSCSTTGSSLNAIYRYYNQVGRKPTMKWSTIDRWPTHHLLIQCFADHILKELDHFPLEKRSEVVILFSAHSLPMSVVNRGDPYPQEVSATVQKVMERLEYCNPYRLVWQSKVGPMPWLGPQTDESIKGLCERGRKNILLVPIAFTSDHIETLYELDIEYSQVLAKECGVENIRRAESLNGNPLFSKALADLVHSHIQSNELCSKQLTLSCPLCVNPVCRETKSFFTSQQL
In short: (§1)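 Each kinase domain, at 2 μM, is mixed with 20 μM test compound and SYPRO Orange in Hepes (20 mM, pH 7.5) with 500 mM NaCl. Temperature is then raised at 3°C/min and fluorescence-monitored unfolding yields the melting temperature change, ΔTm in degrees Celsius.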

[2] = target: T2, ~100 representative kinases (Homo sapiens, UniProt Q9UKI8); conditions: Protein TLK1; DSF; average of three replicates
T2 construct: Recombinant protein kinase domains with a concentration of 2 μM
T2 sequence (Q9UKI8 1-766): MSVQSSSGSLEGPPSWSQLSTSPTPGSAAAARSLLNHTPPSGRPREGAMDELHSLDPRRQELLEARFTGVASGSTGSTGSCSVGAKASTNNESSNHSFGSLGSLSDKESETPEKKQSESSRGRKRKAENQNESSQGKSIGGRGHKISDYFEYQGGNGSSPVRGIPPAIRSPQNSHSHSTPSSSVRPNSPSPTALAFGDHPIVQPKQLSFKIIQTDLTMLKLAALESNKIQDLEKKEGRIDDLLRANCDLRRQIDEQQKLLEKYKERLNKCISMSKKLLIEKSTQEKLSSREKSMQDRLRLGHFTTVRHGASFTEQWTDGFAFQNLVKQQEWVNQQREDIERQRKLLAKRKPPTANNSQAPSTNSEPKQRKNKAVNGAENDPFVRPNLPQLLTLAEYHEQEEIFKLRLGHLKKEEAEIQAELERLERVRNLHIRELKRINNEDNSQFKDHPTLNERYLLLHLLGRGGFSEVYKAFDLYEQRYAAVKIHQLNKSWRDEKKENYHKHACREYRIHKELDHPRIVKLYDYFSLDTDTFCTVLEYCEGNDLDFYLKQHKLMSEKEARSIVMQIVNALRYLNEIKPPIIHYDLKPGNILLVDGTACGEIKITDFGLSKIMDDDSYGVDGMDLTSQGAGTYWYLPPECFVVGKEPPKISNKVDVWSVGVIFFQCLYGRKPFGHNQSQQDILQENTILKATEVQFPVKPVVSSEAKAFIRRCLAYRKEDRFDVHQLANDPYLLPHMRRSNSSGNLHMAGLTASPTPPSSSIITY
In short: as §1

[3] = target: T3, ~100 representative kinases (Homo sapiens, UniProt O95747); conditions: protein OSR1; average of three replicates
T3 construct: Recombinant protein kinase domains with a concentration of 2 μM
In short: as §1

[4] = target: T4, ~100 representative kinases (Homo sapiens, UniProt Q13153); conditions: protein PAK1; average of three replicates
T4 construct: Recombinant protein kinase domains with a concentration of 2 μM
In short: as §1

[5] = target: T5, ~100 representative kinases (Homo sapiens, UniProt O14965); conditions: Protein STK6; DSF; average of three replicates
T5 construct: Recombinant protein kinase domains with a concentration of 2 μM
T5 sequence (O14965 1-403): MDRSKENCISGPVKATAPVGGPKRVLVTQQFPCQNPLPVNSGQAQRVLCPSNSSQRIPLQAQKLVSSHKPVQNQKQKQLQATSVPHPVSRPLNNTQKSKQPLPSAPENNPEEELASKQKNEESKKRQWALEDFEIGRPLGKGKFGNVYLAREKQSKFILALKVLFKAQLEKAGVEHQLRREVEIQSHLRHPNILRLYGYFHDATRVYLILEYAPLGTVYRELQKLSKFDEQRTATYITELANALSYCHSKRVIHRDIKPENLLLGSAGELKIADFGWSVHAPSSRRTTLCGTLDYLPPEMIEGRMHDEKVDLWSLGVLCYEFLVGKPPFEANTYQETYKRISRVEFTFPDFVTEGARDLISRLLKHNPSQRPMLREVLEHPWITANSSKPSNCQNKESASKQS
In short: as §1

[6] = target: T6, ~100 representative kinases (Homo sapiens, UniProt Q14680); conditions: protein MELK; average of three replicates
T6 construct: Recombinant protein kinase domains with a concentration of 2 μM
In short: as §1

[7] = target: T7, ~100 representative kinases (Homo sapiens, UniProt P68400); conditions: Protein CK2A1; average of three replicates
T7 construct: Recombinant protein kinase domains with a concentration of 2 μM
In short: as §1

[8] = target: T8, ~100 representative kinases (Homo sapiens, UniProt P45984); conditions: protein MAPK9; average of three replicates
T8 construct: Recombinant protein kinase domains with a concentration of 2 μM
In short: as §1

[9] = target: T9, ~100 representative kinases (Homo sapiens, UniProt P51955); conditions: protein NEK2; average of three replicates
T9 construct: Recombinant protein kinase domains with a concentration of 2 μM
T9 sequence (P51955 1-445): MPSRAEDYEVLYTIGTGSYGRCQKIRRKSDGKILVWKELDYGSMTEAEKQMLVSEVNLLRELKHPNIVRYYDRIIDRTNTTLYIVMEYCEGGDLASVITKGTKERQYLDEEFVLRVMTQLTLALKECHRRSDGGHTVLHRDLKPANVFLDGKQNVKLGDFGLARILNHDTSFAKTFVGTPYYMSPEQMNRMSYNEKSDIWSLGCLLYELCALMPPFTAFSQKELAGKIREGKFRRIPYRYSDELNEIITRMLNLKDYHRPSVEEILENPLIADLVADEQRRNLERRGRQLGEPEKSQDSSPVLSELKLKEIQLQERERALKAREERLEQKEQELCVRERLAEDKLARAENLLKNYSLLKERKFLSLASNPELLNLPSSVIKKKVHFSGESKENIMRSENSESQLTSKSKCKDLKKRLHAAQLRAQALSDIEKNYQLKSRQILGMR
In short: as §1

[10] = target: T10, ~100 representative kinases (Homo sapiens, UniProt P21675); conditions: Protein TAF1; DSF; average of three replicates
T10 construct: Recombinant protein kinase domains with a concentration of 2 μM
In short: as §1

[11] = target: T11, ~100 representative kinases (Homo sapiens, UniProt Q15418); conditions: Protein RPS6KA1; DSF; average of three replicates
T11 construct: Recombinant protein kinase domains with a concentration of 2 μM
In short: as §1

T3 sequence (O95747 whole entry, the tested form may be a part): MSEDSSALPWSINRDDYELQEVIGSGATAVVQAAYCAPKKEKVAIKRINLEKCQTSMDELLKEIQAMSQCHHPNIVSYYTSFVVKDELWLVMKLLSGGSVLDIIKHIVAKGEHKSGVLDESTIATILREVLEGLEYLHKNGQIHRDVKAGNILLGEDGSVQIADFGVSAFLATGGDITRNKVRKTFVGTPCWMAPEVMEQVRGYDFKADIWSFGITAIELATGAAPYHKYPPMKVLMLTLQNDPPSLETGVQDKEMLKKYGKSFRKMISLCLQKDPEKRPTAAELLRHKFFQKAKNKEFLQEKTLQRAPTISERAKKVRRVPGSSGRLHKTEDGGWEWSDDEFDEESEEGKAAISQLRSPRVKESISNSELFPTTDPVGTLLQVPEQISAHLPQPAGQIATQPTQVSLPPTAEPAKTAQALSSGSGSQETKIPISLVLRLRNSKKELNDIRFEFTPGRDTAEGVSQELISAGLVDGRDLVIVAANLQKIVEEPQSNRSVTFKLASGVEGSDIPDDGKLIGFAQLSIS
T11 sequence (Q15418 whole entry, the tested form may be a part): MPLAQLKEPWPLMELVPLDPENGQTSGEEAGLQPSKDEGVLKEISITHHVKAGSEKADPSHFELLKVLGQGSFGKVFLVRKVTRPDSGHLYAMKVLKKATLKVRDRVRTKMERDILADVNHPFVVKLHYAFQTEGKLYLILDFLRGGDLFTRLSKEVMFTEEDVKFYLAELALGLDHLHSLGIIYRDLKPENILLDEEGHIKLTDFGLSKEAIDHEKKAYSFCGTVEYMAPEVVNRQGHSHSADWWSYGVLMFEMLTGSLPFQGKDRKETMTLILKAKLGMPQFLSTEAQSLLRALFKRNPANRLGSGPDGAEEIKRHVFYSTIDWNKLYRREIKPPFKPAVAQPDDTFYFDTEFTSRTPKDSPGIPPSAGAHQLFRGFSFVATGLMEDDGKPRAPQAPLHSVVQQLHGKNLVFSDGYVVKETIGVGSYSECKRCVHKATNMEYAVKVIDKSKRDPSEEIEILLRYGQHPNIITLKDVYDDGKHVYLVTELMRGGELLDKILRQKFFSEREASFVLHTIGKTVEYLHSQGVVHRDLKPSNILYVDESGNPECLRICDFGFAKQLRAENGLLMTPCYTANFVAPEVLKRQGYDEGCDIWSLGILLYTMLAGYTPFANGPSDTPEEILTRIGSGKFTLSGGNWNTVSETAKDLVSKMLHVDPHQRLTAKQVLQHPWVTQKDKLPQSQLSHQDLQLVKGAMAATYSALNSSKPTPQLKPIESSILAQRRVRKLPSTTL
T7 sequence (P68400 whole entry, the tested form may be a part): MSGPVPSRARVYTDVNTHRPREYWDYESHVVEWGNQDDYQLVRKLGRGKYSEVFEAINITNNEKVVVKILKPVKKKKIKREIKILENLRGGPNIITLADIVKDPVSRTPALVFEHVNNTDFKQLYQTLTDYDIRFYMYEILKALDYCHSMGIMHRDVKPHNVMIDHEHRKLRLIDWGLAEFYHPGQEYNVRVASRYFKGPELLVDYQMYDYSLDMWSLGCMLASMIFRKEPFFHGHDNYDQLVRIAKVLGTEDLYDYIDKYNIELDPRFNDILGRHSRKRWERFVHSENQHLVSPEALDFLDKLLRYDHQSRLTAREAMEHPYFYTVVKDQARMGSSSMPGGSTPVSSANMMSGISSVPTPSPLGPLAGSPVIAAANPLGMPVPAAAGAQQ
T8 sequence (P45984 whole entry, the tested form may be a part): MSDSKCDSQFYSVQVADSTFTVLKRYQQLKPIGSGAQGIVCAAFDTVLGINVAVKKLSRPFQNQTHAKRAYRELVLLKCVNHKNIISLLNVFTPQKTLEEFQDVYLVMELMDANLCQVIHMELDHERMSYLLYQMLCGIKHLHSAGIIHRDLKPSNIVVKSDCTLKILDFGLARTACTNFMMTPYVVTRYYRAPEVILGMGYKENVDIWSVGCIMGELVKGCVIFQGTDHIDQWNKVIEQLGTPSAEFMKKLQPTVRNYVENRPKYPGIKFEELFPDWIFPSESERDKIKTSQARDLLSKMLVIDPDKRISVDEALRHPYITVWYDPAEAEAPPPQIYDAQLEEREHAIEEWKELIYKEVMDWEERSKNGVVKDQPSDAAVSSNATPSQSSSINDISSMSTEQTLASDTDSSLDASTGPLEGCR
T4 sequence (Q13153 whole entry, the tested form may be a part): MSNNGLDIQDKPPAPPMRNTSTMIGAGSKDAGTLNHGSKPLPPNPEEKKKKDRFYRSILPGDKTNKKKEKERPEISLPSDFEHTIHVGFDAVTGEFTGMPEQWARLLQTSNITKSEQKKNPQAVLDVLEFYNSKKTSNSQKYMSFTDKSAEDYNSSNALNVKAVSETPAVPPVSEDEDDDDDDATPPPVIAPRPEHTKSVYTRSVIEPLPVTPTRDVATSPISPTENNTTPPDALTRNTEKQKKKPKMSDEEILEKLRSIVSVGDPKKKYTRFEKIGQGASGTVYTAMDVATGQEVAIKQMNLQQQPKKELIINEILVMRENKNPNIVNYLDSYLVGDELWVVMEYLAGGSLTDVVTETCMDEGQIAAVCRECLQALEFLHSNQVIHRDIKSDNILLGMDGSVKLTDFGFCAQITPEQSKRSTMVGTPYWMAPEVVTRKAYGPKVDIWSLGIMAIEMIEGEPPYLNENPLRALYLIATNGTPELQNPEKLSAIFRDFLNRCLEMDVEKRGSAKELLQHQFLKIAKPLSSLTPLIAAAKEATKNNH
T6 sequence (Q14680 whole entry, the tested form may be a part): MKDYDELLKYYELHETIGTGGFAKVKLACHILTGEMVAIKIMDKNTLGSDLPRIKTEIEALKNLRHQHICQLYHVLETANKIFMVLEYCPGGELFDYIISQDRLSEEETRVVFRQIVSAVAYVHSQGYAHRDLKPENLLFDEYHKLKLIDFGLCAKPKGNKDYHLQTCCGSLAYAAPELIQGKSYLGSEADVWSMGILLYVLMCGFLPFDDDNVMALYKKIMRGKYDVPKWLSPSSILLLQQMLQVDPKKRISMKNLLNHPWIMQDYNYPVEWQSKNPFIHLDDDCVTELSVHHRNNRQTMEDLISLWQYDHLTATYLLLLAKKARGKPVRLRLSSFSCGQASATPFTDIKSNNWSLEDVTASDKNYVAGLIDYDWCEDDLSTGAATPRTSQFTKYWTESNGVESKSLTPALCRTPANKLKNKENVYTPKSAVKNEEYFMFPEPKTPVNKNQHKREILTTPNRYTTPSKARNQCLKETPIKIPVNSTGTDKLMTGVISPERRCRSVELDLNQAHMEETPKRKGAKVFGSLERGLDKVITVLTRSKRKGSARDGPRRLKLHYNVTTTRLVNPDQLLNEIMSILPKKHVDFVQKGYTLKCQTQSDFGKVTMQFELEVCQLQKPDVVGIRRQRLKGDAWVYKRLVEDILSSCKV

Row | SMILES | dTm [1] [K] | dTm [2] [K] | dTm [3] [K] | dTm [4] [K] | dTm [5] [K] | dTm [6] [K] | dTm [7] [K] | dTm [8] [K] | dTm [9] [K] | dTm [10] [K] | dTm [11] [K]
1 | O=C(Nc1ccc(Cl)cc1)C1(C(=O)Nc2cccc(-c3c[nH]c4ncnc(N5CCOCC5)c34)c2)CC1 [Compound 13] | -6.06 | 0.97 | 2.33 | 3.82 | 9.16 | 15.01 | 0.00 | 3.96 | 2.76 | 1.29 | -0.42
2 | Cc1ccc(NC(=O)C2(C(=O)Nc3cccc(-c4c[nH]c5ncnc(N6CCOCC6)c45)c3)CC2)cc1 [Compound 14] | 0.67 | -0.87 | 1.54 | 2.44 | 7.04 | 11.82 | 1.79 | 2.56 | 0.85 | 0.34 | 0.14
3 | CCc1ccc(NC(=O)C2(C(=O)Nc3cccc(-c4c[nH]c5ncnc(N6CCOCC6)c45)c3)CC2)cc1 [Compound 15] | -8.07 | -0.49 | 0.69 | 1.40 | 9.54 | 6.77 | 2.19 | 4.14 | 2.27 | 1.78 | 0.29
4 | COc1ccc(NC(=O)C2(C(=O)Nc3cccc(-c4c[nH]c5ncnc(N6CCOCC6)c45)c3)CC2)cc1 [Compound 16] | 0.0636 | -1.11 | 0.35 | 0.47 | 5.48 | 8.41 | 1.00 | 1.53 | 2.18 | 0.37 | -0.37
5 | O=C(Nc1cccc(-c2c[nH]c3ncnc(N4CCOCC4)c23)c1)C1(C(=O)Nc2ccc(F)c(F)c2)CC1 [Compound 17] | 1.70 | -0.35 | 2.20 | 3.52 | 7.27 | 14.46 | -0.81 | 2.95 | 2.00 | 0.99 | 0.38
6 | O=C(Nc1cccc(-c2c[nH]c3ncnc(N4CCOCC4)c23)c1)C1(C(=O)Nc2ccc(F)c(Cl)c2)CC1 [Compound 18] | -2.64 | 0.17 | 0.31 | 5.39 | 8.24 | 13.04 | -0.75 | 5.44 | 1.39 | 1.40 | 0.70
7 | O=C(Nc1cccc(-c2c[nH]c3ncnc(N4CCOCC4)c23)c1)C1(C(=O)Nc2ccc(F)c(Br)c2)CC1 [Compound 19] | -5.01 | 2.03 | 1.49 | 5.56 | 7.49 | 17.38 | 0.10 | 5.82 | -0.29 | 0.00 | 0.26
8 | Cc1cc(NC(=O)C2(C(=O)Nc3cccc(-c4c[nH]c5ncnc(N6CCOCC6)c45)c3)CC2)ccc1F [Compound 20] | 2.57 | -0.17 | 1.31 | 6.40 | 8.40 | 17.51 | -0.56 | 6.61 | 1.19 | 0.99 | 0.33
9 | COc1cc(NC(=O)C2(C(=O)Nc3cccc(-c4c[nH]c5ncnc(N6CCOCC6)c45)c3)CC2)ccc1F [Compound 21] | -0.18 | -0.77 | 1.79 | 4.31 | 6.06 | 16.69 | 1.43 | 3.60 | 1.38 | 0.37 | 0.11
10 | CC(C)(C)c1cccc(NC(=O)C2(C(=O)Nc3cccc(-c4c[nH]c5ncnc(N6CCOCC6)c45)c3)CC2)c1 [Compound 22] | -3.46 | 0.35 | 4.04 | 3.87 | 6.69 | 17.31 | -1.17 | 1.21 | 0.62 | 1.24 | -0.38
11 | O=C(Nc1cccc(-c2c[nH]c3ncnc(N4CCOCC4)c23)c1)C1(C(=O)Nc2ccc(F)cc2F)CC1 [Compound 23] | 0.12 | -0.64 | 1.41 | 1.05 | 6.33 | 13.56 | -0.33 | 2.02 | 1.54 | 0.59 | 0.27
12 | Cc1cc(F)ccc1NC(=O)C1(C(=O)Nc2cccc(-c3c[nH]c4ncnc(N5CCOCC5)c34)c2)CC1 [Compound 24] | 0.38 | -0.75 | 0.69 | 2.36 | 6.56 | 12.59 | 0.65 | 2.21 | 1.66 | 0.30 | 0.19
13 | O=C(Nc1cccc(-c2c[nH]c3ncnc(N4CCOCC4)c23)c1)C1(C(=O)Nc2cc(Br)c(F)cc2F)CC1 [Compound 25] | -0.79 | 1.57 | 0.13 | 0.67 | 6.39 | 14.53 | -3.68 | 4.88 | -3.69 | 1.63 | -1.87
